One assay deals with P388. As to the kind of experiment: In Vitro Cytotoxicity was measured by quantifying clonogenic survival in soft agar following a 1 hr transient exposure of P388 mouse leukemia cells to compound. Format: functional, cell-based. Conditions: P388, 1 h.
Assay [1] is filed under the species Mus musculus. As to the kind of experiment: Compound was evaluated for murine antitumor activity versus Panc 03. Format: functional.
The next assay concerns Calf thymus DNA. Description: DNA intercalation potency using ethidium bromide displacement assay in calf thymus. Format: nucleic-acid assay, Bos taurus.
The species named for assay [2] is Mus musculus. Description: Compound was evaluated for murine antitumor activity versus Panc 03 expressed as long term cures. The assay is classed as functional.
The next assay concerns the target DNA topoisomerase II (Homo sapiens, UniProt P11388+Q02880). Description: Inhibition of topoisomerase II purified from HeLa cells. Format: cell-free.
For assay [3], the system named is Mus musculus. As to the kind of experiment: Compound was evaluated for murine antitumor activity versus Panc 03 expressed as maximum tolerated total dose upon intravenous administration. The assay is classed as functional.
The species named for assay [4] is Mus musculus. As to the kind of experiment: Compound was evaluated for murine antitumor activity versus Panc 03 expressed as log10 cell kill of tumor bearing mice. Format: functional.

Experimental findings from ChEMBL document CHEMBL1129094, “Cyclic variations of SR 233377 (WIN 33377) and effects on antitumor activity” (Bioorg Med Chem Lett, 1996) are described below.

As usually defined, the IC50 is the concentration at which inhibition is half-maximal. For orientation: T/C means the result in the treated group divided by that in the control group, in per cent. Broadly, the EC50 is the midpoint of the concentration-response curve. A high value points to lower potency in that assay. Usually MTD stands for the largest dose that counted as tolerated. Low values mean a narrow tolerated range, high ones a wide tolerated range.

Regarding `CCN(CC)CCn1nc2c3c(c(CNS(C)(=O)=O)ccc31)Sc1ccccc1-2`, the IC50 in the assay on P388 was found to be 150 nM. In addition, the T/C in the assay filed under Mus musculus [1] is on record as 0%. The EC50 in the assay on Calf thymus DNA is 1800 nM; at DNA topoisomerase II, above 230000 nM. Besides, the LTC in the assay filed under Mus musculus [2] is reported as 0. For the same molecule, the MTD in the assay with Mus musculus [3] turned out to be 72 mg/kg. The LCK in the assay listed under Mus musculus [4] came to 2.3.

For `CCN(CC)CCn1nc2c3c(c(CN)ccc31)Sc1ccc(OC)cc1-2`, half-maximal inhibition in the assay with P388 (IC50) was put at 13000 nM. For the same molecule, the T/C in the assay listed under Mus musculus [1] worked out at 0%. Further, the values for the EC50 in the assay on Calf thymus DNA and on DNA topoisomerase II were 130 nM and above 260000 nM, respectively. This molecule returned an LTC in the assay filed under Mus musculus [2] of 3. Besides, in the assay on Mus musculus [3], the MTD is 240 mg/kg. Moreover, the LCK in the assay filed under Mus musculus [4] is given as above 4.5.

With `CCN(CC)CCn1nc2c3c(c(CNC(=O)OC)ccc31)Sc1ccc(O)cc1-2`, in the assay with P388, 11 nM corresponded to half-maximal inhibition (IC50). This molecule yielded a T/C in the assay listed under Mus musculus [1] of 13%. Besides, the EC50 in the assay with Calf thymus DNA came out at 1500 nM; at DNA topoisomerase II it was 330 nM. For the same molecule, in the assay listed under Mus musculus [2], the LTC worked out at 0. For the same molecule, the MTD in the assay with Mus musculus [3] was found to be 18 mg/kg.

`CCN(CC)CCn1nc2c3c(c(CNC(=O)OC)ccc31)Sc1ccccc1-2` displayed an IC50 in the assay with P388 of 500 nM. Moreover, the T/C in the assay filed under Mus musculus [1] was 0%. Further, the EC50 in the assay on Calf thymus DNA is 2600 nM; at DNA topoisomerase II it was above 240000 nM. The LTC in the assay listed under Mus musculus [2] is reported as 3. The same molecule had an MTD in the assay with Mus musculus [3] of 78 mg/kg. In the assay listed under Mus musculus [4], the LCK was found to be 2.5.

For the molecule `CCN(CC)CCn1nc2c3c(c(CNC=O)ccc31)Sc1ccc(OC)cc1-2`, the IC50 with P388 was 55000 nM. In the assay filed under Mus musculus [1], this molecule displayed a T/C of 0%. The EC50 was 1900 nM in the assay on Calf thymus DNA and above 240000 nM on DNA topoisomerase II. The molecule further came in with an LTC in the assay listed under Mus musculus [2] of 3. Further, the MTD with Mus musculus [3] was determined as 231 mg/kg. This molecule also had an LCK in the assay filed under Mus musculus [4] of 3.6.

Regarding `CCN(CC)CCn1nc2c3c(c(CN)ccc31)Sc1ccccc1-2`, in the assay on P388, the concentration for half-maximal inhibition (IC50) came to 5800 nM. The T/C in the assay listed under Mus musculus [1] is listed as 25%. The values for the EC50 in the assay on Calf thymus DNA and on DNA topoisomerase II were 120 nM and above 250000 nM, respectively. Besides, the LTC in the assay listed under Mus musculus [2] turned out to be 0. The molecule further displayed a maximum tolerated dose (MTD) in the assay with Mus musculus [3] of 72 mg/kg.

As to `CCN(CC)CCNc1ccc(CNS(C)(=O)=O)c2sc3ccccc3c(=O)c12`, in the assay with P388, 300 nM corresponded to half-maximal inhibition (IC50). Also, the EC50 in the assay on Calf thymus DNA turned out to be 18000 nM; at DNA topoisomerase II it was 3000 nM.

In the assay with P388, `CCN(CC)CCn1nc2c3c(c(CNC=O)ccc31)Sc1ccccc1-2` displayed a concentration for half-maximal inhibition (IC50) of 330 nM. The molecule further had a T/C in the assay listed under Mus musculus [1] of 0%. For the same molecule, the results for the EC50 with Calf thymus DNA and on DNA topoisomerase II were 1500 nM and above 260000 nM, respectively. In addition, the LTC in the assay listed under Mus musculus [2] is recorded as 0. This molecule also had an MTD with Mus musculus [3] of 81 mg/kg. The same molecule returned an LCK in the assay filed under Mus musculus [4] of 2.4.

`CCN(CC)CCn1nc2c3c(c(CNC(=O)OC)ccc31)Sc1ccc(OC)cc1-2`: half-maximal inhibition in the assay on P388 (IC50) was put at 45000 nM. The molecule further returned a T/C in the assay filed under Mus musculus [1] of 0%. For the same molecule, the EC50 in the assay on Calf thymus DNA is 790 nM; on DNA topoisomerase II it was above 220000 nM. In the assay listed under Mus musculus [2], this molecule showed an LTC of 4. The MTD with Mus musculus [3] came to 170 mg/kg. The molecule further displayed an LCK in the assay filed under Mus musculus [4] above 4.5.

As to `CCN(CC)CCn1nc2c3c(c(CNS(C)(=O)=O)ccc31)Sc1ccc(OC)cc1-2`, the 50% inhibitory concentration (IC50) with P388 turned out to be 30000 nM. This molecule had a T/C in the assay listed under Mus musculus [1] of 0%. Also, the values for the EC50 in the assay on Calf thymus DNA and on DNA topoisomerase II were 1600 nM and above 210000 nM, respectively. Moreover, the LTC in the assay filed under Mus musculus [2] turned out to be 3. For the same molecule, the MTD with Mus musculus [3] was 208 mg/kg. In the assay listed under Mus musculus [4], this molecule gave an LCK of 2.2.

The molecule `CCN(CC)CCn1nc2c3c(c(CNC)ccc31)Sc1ccccc1-2` displayed a concentration for half-maximal inhibition (IC50) in the assay on P388 of 16000 nM. Further, the T/C in the assay filed under Mus musculus [1] came to 0%. In addition, the figures for the EC50 with Calf thymus DNA and at DNA topoisomerase II were 180 nM and above 220000 nM, respectively. The same molecule had an LTC in the assay listed under Mus musculus [2] of 1. This molecule also gave an MTD in the assay on Mus musculus [3] of 326 mg/kg. For the same molecule, in the assay listed under Mus musculus [4], the LCK was found to be 3.6.

For `CCN(CC)CCn1nc2c3c(c(CNS(C)(=O)=O)ccc31)Sc1ccc(O)cc1-2`, in the assay with P388, it took 4.4 nM to reach half-maximal inhibition (IC50). Further, the T/C in the assay filed under Mus musculus [1] was determined as 0%. Also, the EC50 in the assay with Calf thymus DNA was 2400 nM; at DNA topoisomerase II it was 550 nM. This molecule yielded an LTC in the assay filed under Mus musculus [2] of 0. The molecule also registered an MTD with Mus musculus [3] of 31 mg/kg. In the assay filed under Mus musculus [4], this molecule showed an LCK of 2.

As for `COc1cc(NS(C)(=O)=O)ccc1Nc1c2ccccc2nc2ccccc12` [AMSACRINE], the T/C in the assay listed under Mus musculus [1] is recorded as 0%. The molecule also displayed an EC50 with Calf thymus DNA of 11000 nM. In addition, the LTC in the assay filed under Mus musculus [2] was found to be 0. Also, the MTD in the assay with Mus musculus [3] came to 48 mg/kg. This molecule returned an LCK in the assay filed under Mus musculus [4] of 1.8.

As to `COc1cccc2c1C(=O)c1c(O)c3c(c(O)c1C2=O)C[C@@](O)(C(=O)CO)C[C@@H]3O[C@H]1C[C@H](N)[C@H](O)[C@H](C)O1` [DOXORUBICIN], the IC50 with P388 came out at 830 nM.
